Assay results as given in patent publication US20230212131A1, “COLLAGEN 1 TRANSLATION INHIBITORS AND METHODS OF USE THEREOF” (Anima Biotech Inc., priority 2020, published 2023).

System: collagen 1 (COL1)
Assay: WI-38 collagen 1 inhibition assay
Type: cell-based, human
Details: Cellular EC50, WI-38 cells; values are classes of LogEC50
Procedure, shortened: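 WI-38 fibroblasts serum-starved (0.25% FBS 2 h, then none 24 h), then given a collagen induction cocktail together with compound. Cells fixed, immunostained for collagen I with DAPI counterstain, and imaged at 20×; per-cell fluorescence quantified by image analysis.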

| Structure (SMILES) | COL1 Efficacy (LogEC50) |
| --- | --- |
| O=C(Nc1nc(-c2ccccc2Cl)cs1)c1ccc(C2CCS(=O)(=O)CC2)cc1 [compound 382, N-(4-(2-chlorophenyl)thiazol-2-yl)-4-(1,1-dioxidotetrahydro-2H-thiopyran-4-yl)benzamide] | +++ (+++: <−6) |
| O=C(Nc1nc(-c2ccccc2Cl)cs1)c1ccc(C(=O)N2CCOCC2)cc1 [compound 384, N-(4-(2-chlorophenyl)thiazol-2-yl)-4-(morpholine-4-carbonyl)benzamide] | ++ (++: −5 to −6) |
| O=C(Nc1nc(-c2ccccc2Cl)cs1)c1ccc(C(=O)N2CCS(=O)(=O)CC2)cc1 [compound 385, N-(4-(2-chlorophenyl)thiazol-2-yl)-4-(1,1-dioxidothiomorpholine-4-carbonyl)benzamide] | ++ (++: −5 to −6) |
| CN(C)C(=O)c1ccc(C(=O)Nc2nc(-c3ccccc3Cl)cs2)cc1 [compound 389, N′-(4-(2-chlorophenyl)thiazol-2-yl)-N,N-dimethylterephthalamide] | ++ (++: −5 to −6) |
| O=C(Nc1nc(C2CCOCC2)cs1)c1ccc(N2CCOCC2)cn1 [compound 393, 5-morpholino-N-(4-(tetrahydro-2H-pyran-4-yl)thiazol-2-yl)picolinamide] | ++ (++: −5 to −6) |
| O=C(Nc1nc(-c2ccccc2Cl)cs1)c1ccc(N2CCOCC2)cc1F [compound 408] | − (−: inactive) |
| O=C(Nc1nc(-c2ccccc2Cl)cs1)C12CC(C(=O)N3CCOCC3)(C1)C2 [compound 420] | + (+: >−5) |
| O=C(Nc1nc(-c2ccccc2Cl)cs1)[C@H]1C[C@H](N2CCOCC2)C1 [compound 422, (1r,3r)-N-(4-(2-chlorophenyl)thiazol-2-yl)-3-morpholinocyclobutane-1-carboxamide] | ++ (++: −5 to −6) |
| CS(=O)(=O)N1CCN([C@H]2C[C@@H](C(=O)Nc3nc(-c4ccccc4Cl)cs3)C2)CC1 [compound 423] | − (−: inactive) |
| O=C(Nc1nc(-c2ccccc2Cl)cs1)C1CC(C(=O)N2CCOCC2)C1 (stereo not shown) [compound 426] | − (−: inactive) |
| O=C(Nc1nc(-c2ccccc2Cl)cs1)C1CC(C(=O)N2CCOCC2)C1 (stereo not shown) [compound 427] | − (−: inactive) |
| CS(=O)(=O)N1CCN(C(=O)[C@H]2C[C@@H](C(=O)Nc3nc(-c4ccccc4Cl)cs3)C2)CC1 [compound 429] | + (+: >−5) |
| O=C(Nc1nc(-c2ccccc2Cl)cs1)C1CCC(N2CCOCC2)CC1 (stereo not shown) [compound 431] | − (−: inactive) |
| O=C(Nc1nc(-c2ccccc2Cl)cs1)C1CCC(N2CCOCC2)CC1 (stereo not shown) [compound 432] | − (−: inactive) |
| COCc1cc(N2CCOCC2)ccc1C(=O)Nc1nc(-c2ccccc2Cl)cs1 [compound 436] | − (−: inactive) |
| CN1CCN(C(=O)c2ccc(C(=O)Nc3nc(-c4ccccc4Cl)cs3)nc2)CC1 [compound 437, N-(4-(2-chlorophenyl)thiazol-2-yl)-5-(4-methylpiperazine-1-carbonyl)picolinamide] | ++ (++: −5 to −6) |
| CS(=O)(=O)N1CCC(Oc2ccc(C(=O)Nc3nc(-c4ccccc4Cl)cs3)nc2)CC1 [compound 438, N-(4-(2-chlorophenyl)thiazol-2-yl)-5-((1-(methylsulfonyl)piperidin-4-yl)oxy)picolinamide] | +++ (+++: <−6) |
| CN1CCC(Oc2ccc(C(=O)Nc3nc(-c4ccccc4Cl)cs3)nc2)CC1 [compound 439, N-(4-(2-chlorophenyl)thiazol-2-yl)-5-((1-methylpiperidin-4-yl)oxy)picolinamide] | +++ (+++: <−6) |
| CC(=O)N1CCC(Oc2ccc(C(=O)Nc3nc(-c4ccccc4Cl)cs3)nc2)CC1 [compound 440, 5-((1-acetylpiperidin-4-yl)oxy)-N-(4-(2-chlorophenyl)thiazol-2-yl)picolinamide] | +++ (+++: <−6) |
